Reference: patent US7732471B2, “6-oxazol-4-ylmetholmethoxy-alko-alkoxymethyl substituted benzoic acid derivatives forming peroxisome proliferator—activated receptor (PPAR) ligands, process for their preparation and methods of use thereof” (Sanofi-Aventis, priority 2005, dated 2010)
pEC50: −log10 of the molar value.

Columns and labels:
human PPARgamma = molecular target: T1, human PPARgamma (Homo sapiens, UniProt P37231); test: Cellular PPARgamma assay (transiently transfected HEK cells, luciferase reporter); format: cell-based; conditions: HEK cells transiently transfected with GAL4-humanPPARgammaLBD, 48 h incubation, firefly/Renilla luciferase ratio
T1 construct: human PPARgamma receptor (amino acids I152-Y475); expressed in transfected cells; host or cells: HEK cells, transiently transfected with pcDNA3-GAL4-humanPPARgammaLBD
T1 sequence (P37231 182-505 limits assumed): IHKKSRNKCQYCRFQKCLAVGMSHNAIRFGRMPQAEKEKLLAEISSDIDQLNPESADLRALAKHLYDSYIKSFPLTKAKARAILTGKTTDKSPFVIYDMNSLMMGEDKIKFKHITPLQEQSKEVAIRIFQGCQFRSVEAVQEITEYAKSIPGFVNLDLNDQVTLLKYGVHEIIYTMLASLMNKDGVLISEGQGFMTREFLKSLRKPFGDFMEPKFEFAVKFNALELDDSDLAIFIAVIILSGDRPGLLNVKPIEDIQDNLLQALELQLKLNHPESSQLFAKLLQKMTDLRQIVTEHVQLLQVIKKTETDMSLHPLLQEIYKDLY
Source text: Determination of EC50 Values of PPAR Agonists in the Cellular PPARgamma Assay
A transient transfection system is employed to determine the cellular PPARgamma activity of PPAR agonists. It is based on the use of a luciferase reporter plasmid (pGL3basic-5xGAL4-TK) and of a PPARgamma expression plasmid (pcDNA3-GAL4-humanPPARgammaLBD). Both plasmids are transiently transfected into human embryonic kidney cells (HEK cells). There is then expression in these cells of the fusion protein GAL4-humanPPARgammaLBD which binds to the GAL4 binding sites of the reporter plasmid. In the presence of a PPARgamma-active ligand, the activated fusion protein GAL4-humanPPARgammaLBD induces expression of the luciferase reporter gene, which can be detected in the form of a chemiluminescence signal after addition of a luciferase substrate. As a difference from the stably transfected PPARalpha reporter cell line, in the cellular PPARgamma assay the two components (luciferase reporter plasmid and PPARgamma expression plasmid) are transiently transfected into HEK cells because stable and permanent expression of the PPARgamma fusion protein is cytotoxic.
The luciferase reporter plasmid pGL3basic-5xGAL4-TK is based on the vector pGL3basic from Promega. The reporter plasmid is prepared by cloning five binding sites of the yeast transcription factor GAL4 (each binding site with the sequence 5′-CTCGGAGGACAGTACTCCG-3′), together with a 160 bp-long thymidine kinase promoter section (Genbank Accession #AF027128) 5′-upstream into pGL3basic. 3′-downstream of the thymidine kinase promoter is the complete luciferase gene from Photinus pyralis (Genbank Accession #M15077), which is already a constituent of the plasmid pGL3basic used. The cloning and sequencing of the reporter plasmid pGL3basic-5xGAL4-TK took place in analogy to the description in Sambrook J. et. al. (Molecular cloning, Cold Spring Harbor Laboratory Press, 1989).
The PPARgamma expression plasmid pcDNA3-GAL4-humanPPARgammaLBD was prepared by first cloning the cDNA coding for amino acids 1-147 of the yeast transcription factor GAL4 (Genbank Accession #P04386) into the plasmid pcDNA3 (from Invitrogen) 3′-downstream of the cytomegalovirus promoter. Subsequently, the cDNA of the ligand-binding domain (LBD) of the human PPARgamma receptor (amino acids I152-Y475; Accession #g1480099) 3′-downstream of the GAL4 DNA binding domain was cloned. Cloning and sequencing of the PPARgamma expression plasmid pcDNA3-GAL4-humanPPARgammaLBD again took place in analogy to the description in Sambrook J. et. al. (Molecular cloning, Cold Spring Harbor Laboratory Press, 1989). Besides the luciferase reporter plasmid pGL3basic-5xGAL4-TK and the PPARgamma expression plasmid pcDNA3-GAL4-humanPPARgammaLBD, also used for the cellular PPARgamma assay are the reference plasmid pRL-CMV (from Promega) and the plasmid pBluescript SK(+) from Stratagene. All four plasmids were prepared using a plasmid preparation kit from Qiagen, which ensured a plasmid quality with a minimal endotoxin content, before transfection into HEK cells.
The activity of PPARgamma agonists is determined in a 4-day assay which is described below. Before the transfection, HEK cells are cultivated in DMEM medium (#41965-039, Invitrogen) which is mixed with the following additions: 10% FCS (#16000-044, Invitrogen), 1% penicillin-streptomycin solution (#15140-122, Invitrogen) and 2 mM L-glutamine (#25030-024, Invitrogen).
A transfection mixture (solution A) which contains all four plasmids previously described in a DMEM medium, is prepared. The following amounts are used to make up 3 ml of solution A for each 96-well microtiter plate for an assay: 2622 μl of antibiotic- and serum-free DMEM medium (#41965-039, Invitrogen), 100 μl of reference plasmid pRL-CMV (1 ng/μl), 100 μl of luciferase reporter plasmid pGL3basic-5xGAL4-TK (10 ng/μl), 100 μl of PPARgamma expression plasmid pcDNA3-GAL4-humanPPARgammaLBD (100 ng/μl) and 78 μl of plasmid pBluescript SK(+) (500 ng/μl). […]

human PPARalpha = molecular target: T2, human PPARalpha (Homo sapiens, UniProt Q07869); test: Cellular PPARalpha assay (stably transfected HEK luciferase reporter cell line); format: cell-based; conditions: PPARalpha reporter cell line (HEK, GR-GAL4-humanPPARalpha-LBD), 24 h incubation
T2 construct: human PPARalpha receptor (amino acids S167-Y468); expressed in transfected cells; host or cells: HEK cells, stably transfected (pcDNA3 construct)
T2 sequence (Q07869 167-468): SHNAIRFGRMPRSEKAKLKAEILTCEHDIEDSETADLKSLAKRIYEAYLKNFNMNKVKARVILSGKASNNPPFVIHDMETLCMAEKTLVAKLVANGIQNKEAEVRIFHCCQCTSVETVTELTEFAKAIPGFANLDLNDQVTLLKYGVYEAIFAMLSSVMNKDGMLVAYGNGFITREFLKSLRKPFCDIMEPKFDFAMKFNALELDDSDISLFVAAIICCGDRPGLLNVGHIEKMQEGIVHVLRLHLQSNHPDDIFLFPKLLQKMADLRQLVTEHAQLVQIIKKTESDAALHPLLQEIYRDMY
Description: Determination of EC50 Values of PPAR Agonists in the Cellular PPARalpha Assay
The potency of substances which bind to human PPARalpha and activate it in an agonistic manner is analyzed using a stably transfected HEK cell line (HEK=human embryonic kidney) which is referred to here as PPARalpha reporter cell line. It contains two genetic elements, a luciferase reporter element (pdeltaM-GAL4-Luc-Zeo) and a PPARalpha fusion protein (GR-GAL4-humanPPARalpha-LBD) which mediates expression of the luciferase reporter element depending on a PPARalpha ligand. The stably and constitutively expressed fusion protein GR-GAL4-humanPPARalpha-LBD binds in the cell nucleus of the PPARalpha reporter cell line via the GAL4 protein portion to the GAL4 DNA binding motifs 5′-upstream of the luciferase reporter element which is stably integrated in the genome of the cell line. There is only little expression of the luciferase reporter gene without addition of a PPARalpha ligand if fatty acid-depleted fetal calf serum (cs-FCS) is used in the assay. PPARalpha ligands bind and activate the PPARalpha fusion protein and thereby bring about expression of the luciferase reporter gene. The luciferase which is formed can be detected by means of chemiluminescence via an appropriate substrate.
The PPARalpha reporter cell line was prepared in two steps. Firstly, the luciferase reporter element was constructed and stably transfected into HEK cells. For this purpose, five binding sites of the yeast transcription factor GAL4 (in each case 5′-CGGAGTACTGTCCTCCGAG-3′) were cloned in 5′-upstream of a 68 bp-long minimal MMTV promoter (Genbank Accession #V01175). The minimal MMTV promoter section contains a CCAAT box and a TATA element in order to enable efficient transcription by RNA polymerase II. The cloning and sequencing of the GAL4-MMTV construct took place in analogy to the description of Sambrook J. et. al. (Molecular cloning, Cold Spring Harbor Laboratory Press, 1989). Then the complete Photinus pyralis luciferase gene (Genbank Accession #M15077) was cloned in 3′-downstream of the GAL4-MMTV element. After sequencing, the luciferase reporter element consisting of five GAL4 binding sites, MMTV promoter and luciferase gene was subcloned into a plasmid which confers zeozin resistance in order to obtain the plasmid pdeltaM-GAL4-Luc-Zeo. This vector was transfected into HEK cells in accordance with the statements in Ausubel, F. M. et al. (Current protocols in molecular biology, Vol. 1-3, John Wiley & Sons, Inc., 1995).
In a second step, the PPARalpha fusion protein (GR-GAL4-humanPPARalpha-LBD) was introduced into the stable cell clone described. For this purpose, initially the cDNA coding for the N-terminal 76 amino acids of the glucocorticoid receptor (Genbank Accession #P04150) was linked to the cDNA section coding for amino acids 1-147 of the yeast transcription factor GAL4 (Genbank Accession #P04386). The cDNA of the ligand-binding domain of the human PPARalpha receptor (amino acids S167-Y468; Genbank Accession #S74349) was cloned in at the 3′ end of this GR-GAL4 construct. The fusion construct prepared in this way (GR-GAL4-humanPPARalpha-LBD) was subcloned into the plasmid pcDNA3 (from Invitrogen) in order to enable constitutive expression therein by the cytomegalovirus promoter. This plasmid was linearized with a restriction endonuclease and stably transfected into the previously described cell clone containing the luciferase reporter element. The finished PPARalpha reporter cell line which contains a luciferase reporter element and constitutively expresses the PPARalpha fusion protein (GR-GAL4-humanPPARalpha-LBD) was isolated by selection with zeozin (0.5 mg/ml) and G418 (0.5 mg/ml).
The activity of PPARalpha agonists is determined in a 3-day assay which is described below: […]

pEC50 (human PPARgamma)	pEC50 (human PPARalpha)	Structure (SMILES)
< 5.00	9.00	Cc1cccc(COCCCOCc2coc(-c3ccccc3)n2)c1C(=O)O [*, reference compound]
6.20	8.06	COc1ccc(-c2nc(COCCCOCc3cccc(C)c3C(=O)O)c(C)o2)cc1OC [Example 11, 2-Methyl-6-{3-[5-methyl-2-(3,4-dimethoxyphenyl)oxazol-4-ylmethoxy]propoxymethyl}-benzoic acid]
6.15	7.66	Cc1ccc(-c2nc(COCCCOCc3cccc(C)c3C(=O)O)c(C3CCCCC3)o2)cc1 [Example 22, 2-Methyl-6-{3-[5-cyclohexyl-2-p-tolyloxazol-4-ylmethoxy]propoxymethyl}benzoic acid]
6.41	7.89	COc1cccc(-c2nc(COCC(C)(C)COCc3cccc(C)c3C(=O)O)c(C)o2)c1 [Example 27, 2-{3-[2-(3-Methoxyphenyl)-5-methyloxazol-4-ylmethoxy]-2,2-dimethylpropoxymethyl}-6-methylbenzoic acid]
7.40	7.96	Cc1cccc(COCCCOCc2nc(-c3ccc(Oc4ccccc4)cc3)oc2C)c1C(=O)O [Example 8, 2-Methyl-6-{3-[5-methyl-2-(4-phenoxyphenyl)oxazol-4-ylmethoxy]propoxymethyl}-benzoic acid]
7.04	8.43	CCc1oc(-c2cccc(OC)c2)nc1COCCCOCc1cccc(C)c1C(=O)O [Example 17]
6.82	8.38	Cc1cccc(COCCCOCc2nc(-c3ccc(-c4ccccc4)cc3)oc2C)c1C(=O)O [Example 3, 2-Methyl-6-[3-(5-methyl-2-p-biphenyloxazol-4-ylmethoxy)propoxymethyl]benzoic acid]
5.74	7.06	Cc1ccc(-c2nc(COCCCOCc3cccc(C)c3C(=O)O)c(-c3ccccc3)o2)cc1 [Example 23, 2-Methyl-6-[3-(5-phenyl-2-p-tolyloxazol-4-ylmethoxy)propoxymethyl]benzoic acid]

Structure (SMILES)	pEC50 (human PPARgamma)	pEC50 (human PPARalpha)
Cc1cccc(COCCCCOCc2nc(-c3ccc(-c4ccccc4)cc3)oc2C)c1C(=O)O [Example 33, 2-Methyl-6-[4-(2-p-biphenyl-5-methyloxazol-4-ylmethoxy)butoxymethyl]benzoic acid]	7.85	7.68
Cc1cccc(COCCCCOCc2nc(-c3cccc(C(F)(F)F)c3)oc2C(C)C)c1C(=O)O [Example 32, 2-{4-[5-Isopropyl-2-(3-trifluoromethylphenyl)oxazol-4-ylmethoxy]butoxymethyl}-6-methylbenzoic acid]	7.14	8.80
COc1cccc(-c2nc(COCCCCOCc3cccc(C)c3C(=O)O)c(C)o2)c1 [Example 31, 2-Methyl-6-{4-[2-(3-methoxyphenyl)-5-methyloxazol-4-ylmethoxy]butoxymethyl}-benzoic acid]	7.77	8.85
